According to patent US20030087430A1 (priority 2001, published 2003):

Experiments:
Salmonella [1] = assay: Intracellular growth of Salmonella in RAW 264.7 macrophages (colony forming units); type: cell-based, S. typhimurium
Experimental: RAW 264.7 macrophages were plated in triplicate at a density of 5×10^5 cells/well, and incubated for 6 hours prior to infection with various treatments (DMEM-FBS, DMEM-LPDS, DMEM-D-FBS+30 uM Mevinolin, or DMEM-FBS+30 uM Mevinolin, or DMEM-FBS+30 uM Mevinolin+150 uM mevalonate). Cells were infected at a multiplicity of infection of 10 bacteria per cell for 15 minutes at 37° C. After infection, monolayers were incubated in media containing 100 ug/ml gentamicin to kill extracellular bacteria and then maintained in media containing 10 ug/ml for the remainder of the experiment. At 20 hours post infection, the cells were washed three times in PBS, lysed in 1% Triton X-100 and then plated to determine colony forming units.
RAW 264.7 macrophages were plated in triplicate at a density of 4×10^5 cells/well, and infected with bacteria at a multiplicity of infection of 10 bacteria per cell for 15 minutes at 37° C.
After infection, the 12 ug/ml of 4,4,10-β trimethyl-trans-decal-3β-ol (TMD) inhibitor was added to the media which also contained 100 ug/ml gentamicin. At 2 hours post infection, the gentamicin concentration was lowered to 10 ug/ml and maintained for the remainder of the experiment. At 20 hours post infection, cells were lysed with 1% Triton X-100 and bacteria were plated for colony forming units.
Macrophages were treated with 50 nM mevinolin for 3 days prior to infection. Cells were infected as described above, lysed with Triton X-100 at 2 and 20 hours post infection, and then plated to determine colony forming units.

[2] = system: conversion of squalene oxide to lanosterol; assay: Cholesterol synthesis in TMD-treated macrophages; type: cell-based; details: 12 ug/ml TMD, RAW 264.7 macrophages
Salmonella [3] = assay: Extracellular growth of Salmonella in Luria broth (optical density); type: cell-based; details: LB containing 30 uM mevinolin, 37° C., optical density at 23 hours and growth curve
Experimental: Triplicate cultures of Salmonella were grown in a shaking incubator at 37° C. in plain LB, or LB containing 30 uM Mevinolin, and optical density was recorded at 23 hours after inoculation (results shown in FIG. 4A). Triplicate cultures of Salmonella were grown in a shaking incubator at 37° C. in plain LB or in LB containing 30 uM Mevinolin and optical density measurements were used to construct a growth curve (results shown in FIG. 4B).

RAW 264.7 macrophages = assay: Host cell viability (Alamar Blue reduction); type: cell-based; details: 10 nM to 100 uM mevinolin with or without mevalonate, 24 hours, Alamar Blue 3 hours
Experimental: RAW 264.7 macrophages were plated at a density of 1×10^5 cells/well and each sample represents the mean of six wells. Cells were treated with concentrations of mevinolin at 10 nM (1), 100 nM (2), 500 nM (3), 1 uM (4), 10 uM (5), 50 uM (6), 100 uM (7), 50 uM mevinolin+50 uM mevalonate (8), 50 uM mevinolin+150 uM mevalonate (9), 100 uM mevinolin+50 uM mevalonate (10), and 100 uM mevinolin+150 uM mevalonate (11), for 24 hours at 37° C. and then incubated with Alamar Blue for 3 hours.

Legionella = type: cell-based
[4] = system: RAW264.7 macrophages infected with S. typhimurium (SL1344); assay: TUNEL staining of Salmonella-infected macrophages (apoptosis); type: cell-based; details: 30 μM mevinolin from 4 hours prior to infection, 13 hours post infection
Experimental: RAW264.7 macrophages were treated with 30 uM mevinolin starting at 4 hours prior to infection. Infections were done with S. typhimurium (SL1344) at a moi of 10 bacteria per cell. At 13 hours post infection, cells were fixed and processed for TUNEL staining. At least 100 infected and 100 uninfected cells were counted in each monolayer and scored for TUNEL staining. Uninfected cells (black) and infected cells (gray) are shown. Averages of duplicate samples are shown.

SMILES | intracellular survival of Salmonella (Salmonella [1]; 12 ug/ml TMD added after infection, RAW 264.7 macrophages, CFU at 20 hours post infection) | cholesterol synthesis of treated cells [2] | intracellular growth of Salmonella at physiologically relevant concentration (Salmonella [1]; 50 nM mevinolin for 3 days prior to infection, CFU at 2 and 20 hours post infection) | reversal of the defect in Salmonella intracellular growth by mevalonate (Salmonella [1]; 30 uM mevinolin + 150 uM mevalonate, RAW 264.7 macrophages) | Salmonella's intracellular survival (Salmonella [1]; RAW 264.7 macrophages, 30 uM mevinolin from 6 hours prior to infection, CFU at 20 hours post infection) | bacterial growth in liquid culture (extracellular growth of Salmonella) (Salmonella [3]) | host cell viability (RAW 264.7 macrophages) | intracellular growth of Legionella in human macrophages (Legionella) | reversal of the defect in Legionella intracellular growth by mevalonate (Legionella) | apoptosis in Salmonella-infected macrophages (TUNEL staining) [4]
CC1(C)[C@@H](O)CC[C@]2(C)CCCC[C@@H]12 (relative stereo) [TMD, 4,4,10-β trimethyl-trans-decal-3β-ol] | did not lead to a decrease in intracellular survival of Salmonella | accumulated intermediate precursors and made very little cholesterol | – | – | – | – | – | – | – | –
CC[C@H](C)C(=O)O[C@H]1C[C@@H](C)C=C2C=C[C@H](C)[C@H](CC[C@@H]3C[C@@H](O)CC(=O)O3)[C@H]21 [mevinolin] | – | – | inhibit the intracellular growth of Salmonella | can be reversed by the addition of mevalonate | decreased Salmonella's intracellular survival by a factor of ten | does not affect bacterial growth in liquid culture | host cell viability is not affected | inhibited intracellular growth of Legionella in human macrophages | could be reversed by the addition of mevalonate | induces apoptosis in Salmonella-infected macrophages
